{"source": "ChEMBL document CHEMBL6083232", "about": "“A review on synthetic inhibitors of dual-specific tyrosine phosphorylation-regulated kinase 1A (DYRK1A) for the treatment of Alzheimer's disease (AD)” (Bioorg Med Chem, 2024)", "note": "pIC50: −log10 of the molar value."}
{"target": "T1, Dual specificity tyrosine-phosphorylation-regulated kinase 1A (Homo sapiens, UniProt Q13627)", "experiment": "Inhibition of human recombinant 6xHis-tagged DYRK1A catalytic domain (1 to 502 residues) extracted from Escherichia coli BL21 (DE3) cells incubated for 30 mins by Bradford's reagent based analysis"}
{"smiles": "COc1ccc(-c2c[nH]c3ncc(-c4ccc(OC)c(OC)c4)cc23)cc1", "pIC50": 6.34}
{"smiles": "COc1ccc(-c2cnc3[nH]cc(-c4ccc(OC)c(OC)c4)c3c2)cc1OC", "pIC50": 4.24}
{"smiles": "Oc1ccc(-c2cnc3[nH]cc(-c4ccc(O)c(O)c4)c3c2)cc1O", "pIC50": 7.92}
{"smiles": "Oc1ccc(-c2cnc3[nH]cc(-c4ccc(F)c(F)c4)c3c2)cc1O", "pIC50": 4.25}
{"smiles": "COc1ccc(-c2cnc3[nH]cc(-c4ccc(F)c(F)c4)c3c2)cc1OC", "pIC50": 5.28}
{"smiles": "COc1ccc(-c2c[nH]c3ncc(-c4ccc(OCc5ccccc5)c(OCc5ccccc5)c4)cc23)cc1OC", "pIC50": 4.73}
{"smiles": "COc1ccc(-c2c[nH]c3ncc(-c4ccc(O)c(O)c4)cc23)cc1OC", "pIC50": 6.33}
{"smiles": "COc1ccc(-c2cnc3[nH]cc(-c4ccc(F)cc4)c3c2)cc1OC", "pIC50": 5.84}
{"target": "Cyclin-dependent kinase 1 (Homo sapiens, UniProt P06493)", "sequence (P06493 whole entry)": "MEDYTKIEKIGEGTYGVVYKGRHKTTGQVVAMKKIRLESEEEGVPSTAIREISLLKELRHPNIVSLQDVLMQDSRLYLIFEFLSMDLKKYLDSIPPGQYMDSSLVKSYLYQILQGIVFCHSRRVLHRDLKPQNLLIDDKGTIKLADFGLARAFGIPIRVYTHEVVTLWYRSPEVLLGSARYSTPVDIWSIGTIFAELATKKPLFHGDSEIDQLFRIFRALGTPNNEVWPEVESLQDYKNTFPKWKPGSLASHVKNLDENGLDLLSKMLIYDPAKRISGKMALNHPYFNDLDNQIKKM", "experiment": "Inhibition of CDK1 (unknown origin)"}
{"smiles": "COc1ccc2cc3c4c(cc(OC)c(OC)c4c2c1)C(=O)N3", "note": "[ARISTOLACTAM BIII]", "pIC50": 6.39}
{"system": "not listed separately", "experiment": "Half life in human", "assay_type": "ADME", "units": {"half-life": "h"}}
{"smiles": "CN1CCN(C(=O)c2ccc(NC(=O)Nc3nc4ccc(O)cc4s3)cc2)CC1", "half-life": "> 1"}
{"target": "T1, Dual specificity tyrosine-phosphorylation-regulated kinase 1A", "experiment": "Inhibition of DYRK1A (unknown origin) by FRET assay"}
{"smiles": "COc1ccc2c(c1)[nH]c1c3c(OC)cncc3cc(C#N)c21", "pIC50": 6.74}
{"smiles": "CC(=O)Nc1nc2cc(O)ccc2s1", "pIC50": 6.40}
{"smiles": "Cc1ccc(NC(=O)c2n[nH]c3ccc(-c4cncc(CN5CCCCC5)c4)cc23)cn1", "pIC50": 9.00}
{"smiles": "CCN1/C(=C/C(C)=O)Sc2cc3oc4ccccc4c3cc21", "pIC50": 7.70}
{"smiles": "Cc1c(O)cccc1-c1ccc2nc(NC(=O)C3CC3F)sc2c1", "note": "(stereo not given)", "pIC50": 8.22}
{"smiles": "Cc1nc2ccc(-c3cc(N)nc(N)c3)nc2n1-c1ccccc1", "pIC50": 8.70}
{"smiles": "Cc1nc(Nc2ccccc2)c2c(-c3cc(N)nc(N)c3)c[nH]c2n1", "pIC50": 8.70}
{"target": "T1, Dual specificity tyrosine-phosphorylation-regulated kinase 1A", "experiment": "Inhibition of DYRK1A (unknown origin) extracted from Escherichia coli BL21 (DE3) cells measured for 60 mins by FRET assay"}
{"smiles": "CN(Cc1ccco1)c1ncnc2ccc(-c3ccc4c(c3)OCO4)cc12", "pIC50": 6.82}
{"smiles": "O=C1NC(Nc2ccc(O)cc2)=N/C1=C\\c1ccc2c(c1)OCO2", "pIC50": 7.08}
{"smiles": "Oc1ccc(-c2cnc3cnc(-c4ccc(O)cc4)nc3c2)cc1", "pIC50": 6.05}
{"smiles": "CCCC#Cc1ccnc2[nH]cc(-c3ccnc(N)n3)c12", "pIC50": 7.70}
{"target": "T2, Dual specificity tyrosine-phosphorylation-regulated kinase 4 (Homo sapiens, UniProt Q9NR20)", "T2 sequence (Q9NR20 whole entry)": "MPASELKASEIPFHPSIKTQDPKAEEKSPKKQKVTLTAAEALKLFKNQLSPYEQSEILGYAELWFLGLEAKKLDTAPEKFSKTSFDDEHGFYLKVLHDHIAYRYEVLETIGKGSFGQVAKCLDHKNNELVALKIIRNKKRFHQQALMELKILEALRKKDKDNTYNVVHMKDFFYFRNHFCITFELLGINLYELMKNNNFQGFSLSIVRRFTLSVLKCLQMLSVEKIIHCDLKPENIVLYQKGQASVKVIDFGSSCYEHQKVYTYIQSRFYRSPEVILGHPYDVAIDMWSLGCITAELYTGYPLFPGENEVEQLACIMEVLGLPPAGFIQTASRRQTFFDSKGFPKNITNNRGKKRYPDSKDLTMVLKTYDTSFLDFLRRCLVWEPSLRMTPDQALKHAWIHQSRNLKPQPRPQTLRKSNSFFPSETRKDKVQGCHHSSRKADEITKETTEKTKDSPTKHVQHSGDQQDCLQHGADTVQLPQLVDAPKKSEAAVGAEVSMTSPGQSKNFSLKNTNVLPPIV", "experiment": "Inhibition of DYRK4 (unknown origin)"}
{"smiles": "COc1ccc2cc3c4c(cc(OC)c(OC)c4c2c1)C(=O)N3", "note": "[ARISTOLACTAM BIII]", "pIC50": 5.93}
{"target": "T1, Dual specificity tyrosine-phosphorylation-regulated kinase 1A", "experiment": "Inhibition of DYRK1A (unknown origin)"}
{"smiles": "CC(C)Nc1cncc(-c2ccc3cnc(NC(=O)C4CCN(C)CC4)cc3c2)n1", "pIC50": 9.00}
{"smiles": "CC(C)N1CCC(n2cc(C(=O)Nc3cc4cc(-c5cnn(C)c5)ccc4cn3)cn2)CC1", "pIC50": 9.00}
{"smiles": "Cc1nc2ccc(-c3ccnc(N)c3)nc2n1-c1ccc(N2CCN(CCOCCOCCC(=O)N3CCN(Cc4ccc(CNc5cccc6c5C(=O)N(C5CCC(=O)NC5=O)C6)cc4)CC3)CC2)c(F)c1", "note": "(stereo not given)", "pIC50": "> 5.00"}
{"smiles": "O=c1[nH]c2ccc(-c3cncc(NCc4ccccc4)n3)cc2[nH]1", "pIC50": 9.00}
{"smiles": "COCCn1nc2c(c1C#N)-c1cnc3[nH]cc(c3c1)-c1cn(nc1C(F)(F)F)CCCC(=O)N(C)C2", "pIC50": "> 7.30"}
{"smiles": "COc1nc(NC2CCN(C(C)=O)CC2F)nn2ccc(-c3ccc4nnn(CC(F)F)c4c3)c12", "note": "(stereo not given)", "pIC50": 9.00}
{"smiles": "Cn1cc(C(=O)Nc2ncc(-c3ccc(C#N)cc3)s2)ccc1=O", "pIC50": "> 8.00"}
{"smiles": "COCC(CC(C)C)NC1=N/C(=C\\c2ccc3ncsc3c2)C(=O)N1C", "note": "(stereo not given)", "pIC50": "> 8.30"}
{"smiles": "O=C(NC1=Cc2ccc(O)cc2C1)Nc1ccc(NC(=O)c2ccc(O)cc2)cc1", "pIC50": 8.11}
{"smiles": "CN1CCN(c2ccc(-c3ncnc4ccc(-c5ccnc(N)c5)cc34)cc2F)CC1", "pIC50": "> 7.00"}
{"target": "Dual specificity protein kinase CLK1 (Homo sapiens, UniProt P49759)", "sequence (P49759 whole entry)": "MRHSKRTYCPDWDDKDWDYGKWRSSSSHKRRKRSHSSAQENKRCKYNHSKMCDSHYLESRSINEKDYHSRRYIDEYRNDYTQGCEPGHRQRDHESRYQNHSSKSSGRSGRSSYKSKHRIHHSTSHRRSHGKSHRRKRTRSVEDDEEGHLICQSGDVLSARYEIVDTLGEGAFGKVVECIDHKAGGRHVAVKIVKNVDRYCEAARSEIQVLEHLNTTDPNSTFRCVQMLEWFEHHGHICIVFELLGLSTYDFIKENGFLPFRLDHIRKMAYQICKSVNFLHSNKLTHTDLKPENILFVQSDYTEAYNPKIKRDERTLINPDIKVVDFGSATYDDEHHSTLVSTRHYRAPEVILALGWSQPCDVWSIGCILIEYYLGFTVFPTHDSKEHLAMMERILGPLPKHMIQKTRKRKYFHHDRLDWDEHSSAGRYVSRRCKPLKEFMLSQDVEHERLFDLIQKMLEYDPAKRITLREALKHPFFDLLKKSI", "experiment": "Inhibition of CLK1 (unknown origin)"}
{"smiles": "COc1ccc2cc3c4c(cc(OC)c(OC)c4c2c1)C(=O)N3", "note": "[ARISTOLACTAM BIII]", "pIC50": 7.30}
{"target": "T1, Dual specificity tyrosine-phosphorylation-regulated kinase 1A", "experiment": "Inhibition of human DYRK1A in presence of ATP by Kinomescan method"}
{"smiles": "CCn1c2cc(OC)ccc2c2ccnc(C)c21", "pIC50": 5.05}
{"smiles": "COC(=N)c1nc2ccc3ncnc(Nc4ccc(F)cc4Br)c3c2s1", "pIC50": 8.52}
{"smiles": "NC1CCC(Nc2ncc3c(-c4ccnc(NCc5ccccc5)n4)n[nH]c3n2)CC1", "note": "(stereo not given)", "pIC50": 8.22}
{"smiles": "NCC(Nc1nccc(-c2n[nH]c3nc(NC4CCC(N)CC4)ncc23)n1)c1cccc(Cl)c1", "note": "(stereo not given)", "pIC50": 8.34}
{"smiles": "NC1CCC(Nc2ncc3c(-c4ccnc(NCc5ccsc5)n4)n[nH]c3n2)CC1", "note": "(stereo not given)", "pIC50": 7.85}
{"smiles": "COc1cc2[nH]c(=O)c(C(=O)Nc3cc(C(=O)NCc4cccc(Cl)c4)ccc3C)cc2cc1OCCN1CCOCC1", "pIC50": 7.80}
{"target": "Dual specificity tyrosine-phosphorylation-regulated kinase 1B (Homo sapiens, UniProt Q9Y463)", "sequence (Q9Y463 whole entry)": "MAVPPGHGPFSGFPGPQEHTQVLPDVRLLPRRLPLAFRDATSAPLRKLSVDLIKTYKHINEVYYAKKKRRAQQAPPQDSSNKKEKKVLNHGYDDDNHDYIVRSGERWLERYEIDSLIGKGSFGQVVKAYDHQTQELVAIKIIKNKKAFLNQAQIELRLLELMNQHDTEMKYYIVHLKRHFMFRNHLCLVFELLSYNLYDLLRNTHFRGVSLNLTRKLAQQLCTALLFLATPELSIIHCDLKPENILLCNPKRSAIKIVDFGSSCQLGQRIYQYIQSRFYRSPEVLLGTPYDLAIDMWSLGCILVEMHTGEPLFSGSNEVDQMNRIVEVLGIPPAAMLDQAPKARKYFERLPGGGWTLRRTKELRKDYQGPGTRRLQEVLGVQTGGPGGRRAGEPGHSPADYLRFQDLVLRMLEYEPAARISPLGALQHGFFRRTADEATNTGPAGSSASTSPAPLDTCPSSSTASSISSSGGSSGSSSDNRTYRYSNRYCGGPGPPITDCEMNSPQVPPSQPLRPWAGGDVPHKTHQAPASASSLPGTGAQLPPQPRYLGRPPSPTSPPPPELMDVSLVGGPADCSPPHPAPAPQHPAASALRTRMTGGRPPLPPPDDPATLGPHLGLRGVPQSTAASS", "experiment": "Inhibition of DYRK1B (unknown origin) by DiscoverX KINOMEscan assay"}
{"smiles": "O=C(Nc1ccc(C(=O)NCc2ccccc2)cc1)Nc1nc2ccc(O)cc2s1", "pIC50": 7.25}
